The target in data set [1] is T1, reuptake of dopamine (DA) in synaptosomes (Rattus norvegicus, UniProt P23977).
T1 construct: in synaptosomes as described in WO 97/16451; from tissue
Briefly: Inhibition of dopamine reuptake in synaptosomes. It counts as biochemical. Particulars: 3H-DA, read-out: DA-uptake IC50.

The target of data set [2] is T2, reuptake of noradrenaline (NA) in synaptosomes (Rattus norvegicus, UniProt Q63380).
T2 construct: in synaptosomes as described in WO 97/16451; from tissue
The data set can be described thus: Inhibition of noradrenaline reuptake in synaptosomes. It counts as biochemical.

For data set [3], the target named is T3, reuptake of serotonine (5-HT) in synaptosomes (Rattus norvegicus, UniProt P31652).
T3 construct: in synaptosomes as described in WO 97/16451; from tissue
Briefly: Inhibition of serotonin reuptake in synaptosomes. Format: biochemical. The procedure:
A number of compounds were tested for their ability to inhibit the reuptake of the monoamine neurotransmitters dopamine (DA) noradrenaline (NA) and serotonine (5-HT) in synaptosomes as described in WO 97/16451.
The test values are given as IC50 (the concentration (μM) of the test substance which inhibits the specific binding of ^3H-DA, ^3H-NA, or ^3H-5-HT by 50%).

[4] abbreviates: synaptosomes, 3H-NA, read-out: NA-uptake IC50.

Molecules are shown by their SMILES. Where a name gives a salt, the structure may show the parent alone. Read-outs that look alike come from different tables or passages of the source.

T2 sequence (Q63380 1-617): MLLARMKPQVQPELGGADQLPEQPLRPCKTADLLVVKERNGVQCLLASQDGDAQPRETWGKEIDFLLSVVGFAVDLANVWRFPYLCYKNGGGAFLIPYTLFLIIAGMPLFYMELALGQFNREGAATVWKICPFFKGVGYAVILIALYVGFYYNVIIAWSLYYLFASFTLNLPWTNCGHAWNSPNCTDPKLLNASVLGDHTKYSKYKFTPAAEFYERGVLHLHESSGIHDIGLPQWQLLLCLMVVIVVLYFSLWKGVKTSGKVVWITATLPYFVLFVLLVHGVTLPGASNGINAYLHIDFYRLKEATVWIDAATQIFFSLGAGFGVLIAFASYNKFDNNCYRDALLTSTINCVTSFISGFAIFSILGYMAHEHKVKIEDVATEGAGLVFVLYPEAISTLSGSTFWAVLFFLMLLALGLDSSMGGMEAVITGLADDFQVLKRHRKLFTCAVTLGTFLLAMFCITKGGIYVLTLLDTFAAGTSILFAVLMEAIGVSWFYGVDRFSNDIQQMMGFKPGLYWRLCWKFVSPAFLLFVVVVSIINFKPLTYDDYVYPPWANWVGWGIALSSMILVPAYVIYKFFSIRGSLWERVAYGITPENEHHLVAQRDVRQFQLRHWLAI
T1 sequence (P23977 whole entry): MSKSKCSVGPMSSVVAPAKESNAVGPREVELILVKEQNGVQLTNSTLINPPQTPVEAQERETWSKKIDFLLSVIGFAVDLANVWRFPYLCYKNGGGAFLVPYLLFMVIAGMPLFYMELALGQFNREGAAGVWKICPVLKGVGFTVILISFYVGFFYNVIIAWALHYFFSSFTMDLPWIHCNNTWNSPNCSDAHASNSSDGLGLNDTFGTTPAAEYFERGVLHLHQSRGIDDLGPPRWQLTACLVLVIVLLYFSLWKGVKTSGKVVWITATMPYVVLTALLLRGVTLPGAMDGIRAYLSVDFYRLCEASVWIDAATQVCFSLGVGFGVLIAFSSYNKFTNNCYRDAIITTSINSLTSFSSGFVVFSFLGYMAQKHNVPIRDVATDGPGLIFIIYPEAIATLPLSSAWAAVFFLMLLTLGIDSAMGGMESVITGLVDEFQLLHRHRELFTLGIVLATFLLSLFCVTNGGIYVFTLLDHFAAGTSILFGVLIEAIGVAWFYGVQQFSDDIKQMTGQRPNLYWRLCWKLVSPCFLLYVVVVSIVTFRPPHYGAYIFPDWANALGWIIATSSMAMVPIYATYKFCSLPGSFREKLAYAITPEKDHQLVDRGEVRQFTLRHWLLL
T3 sequence (P31652 whole entry): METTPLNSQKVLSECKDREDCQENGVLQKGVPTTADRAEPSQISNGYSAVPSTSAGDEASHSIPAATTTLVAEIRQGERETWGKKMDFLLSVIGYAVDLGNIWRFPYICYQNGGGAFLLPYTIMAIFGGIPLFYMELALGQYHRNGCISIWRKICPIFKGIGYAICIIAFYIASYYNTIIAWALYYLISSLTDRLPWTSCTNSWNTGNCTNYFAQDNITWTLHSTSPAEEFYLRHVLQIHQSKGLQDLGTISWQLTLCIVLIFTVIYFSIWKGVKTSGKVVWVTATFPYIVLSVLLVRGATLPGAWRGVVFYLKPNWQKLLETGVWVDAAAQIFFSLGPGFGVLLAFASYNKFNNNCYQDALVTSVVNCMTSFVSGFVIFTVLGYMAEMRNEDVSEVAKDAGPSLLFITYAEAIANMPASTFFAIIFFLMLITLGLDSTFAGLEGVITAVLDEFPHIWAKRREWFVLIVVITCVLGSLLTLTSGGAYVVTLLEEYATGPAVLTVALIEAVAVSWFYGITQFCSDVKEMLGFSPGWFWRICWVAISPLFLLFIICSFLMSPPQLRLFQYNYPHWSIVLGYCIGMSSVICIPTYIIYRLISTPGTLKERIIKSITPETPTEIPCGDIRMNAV

Consider `CN1C2CCCC1CN(c1ccc3ccccc3n1)C2` (as salt: fumaric acid salt) [2nd compound of Method A, 9-Methyl-3-quinolin-2-yl-3,9-diaza-bicyclo[3.3.1]nonane], for which the melting point was in the range of 170.2 to 176.9 °C.

Regarding `O=[N+]([O-])c1ccc2nc(N3CC4CCCC(C3)N4)ccc2c1` [1st compound of Method B, 3-(6-Nitro-quinolin-2-yl)-3,9-diaza-bicyclo[3.3.1]nonane], the IC50 in data set [1] is greater than 1000 nM; in data set [2] (setting [4]) it was 1200 nM; in data set [3], 0.9 nM.

For the compound `CN1C2CCCC1CN(c1ccc3ccccc3n1)C2` [2nd compound of Method A, 9-Methyl-3-quinolin-2-yl-3,9-diaza-bicyclo[3.3.1]nonane], the IC50 in data set [1] was greater than 1000 nM; in data set [2] (setting [4]) it was 140 nM; in data set [3], 7.7 nM.

Consider `COc1ccc2nc(N3CC4CCCC(C3)N4C)ccc2c1` [5th compound of Method A, 3-(6-Methoxy-quinolin-2-yl)-9-methyl-3,9-diaza-bicyclo[3.3.1]nonane], for which the IC50 in data set [1] was 1800 nM; in data set [2] it was 100 nM; in data set [3], 26 nM.

These data come from patent US7687517B2, “3,9-Diazabicyclo [3.3.1] nonane derivatives and their use as monoamine neurotransmitter re-uptake inhibitors” (Neurosearch A/S, priority 2006, dated 2010).
